{"source": "paper PMC10823468", "about": "“Design, Synthesis, and Evaluation of New 1H-Benzo[d]imidazole Based PqsR Inhibitors as Adjuvant Therapy for Pseudomonas aeruginosa Infections” (Journal of Medicinal Chemistry, 2024)", "key": {"[1]": {"system": "PqsR (PqsR-controlled pqsA promoter, PAO1-L mCTX::PpqsA-lux)", "experiment": "Bioluminescent reporter assay, PAO1-L mCTX::PpqsA-lux", "assay_type": "cell-based, Pseudomonas aeruginosa", "conditions": "Pseudomonas aeruginosa, PAO1, read-out: IC50 (μM) PAO1-L mCTX::PpqsA-lux", "protocol": "(§1) An extensive SAR was performed on 6a to investigate the role of substitutions around various positions of the benzimidazole ring (groups R1–R3) as well as the aromatic tail (groups R4–R5) to fine-tune the potency of this series (6a–u) (Table 2). The activity of these analogues to inhibit the pqs QS system was evaluated in the PAO1-L and PA14 strains (that belong to the two major P. aeruginosa genomic lineages), both harboring a chromosomally integrated mCTX::PpqsA-lux transcriptional fusion to report for the activity of pqs system. Successful pharmacological blocking of AQ signal reception at the level of PqsR leads to a reduced transcription of the pqsA-lux genes and ultimately reduction in the luminescence readout.\n(§2) Strains PA14 mCTX::PpqsA-lux and PAO1-L mCTX::PpqsA-lux were used to detect PqsR-controlled activation of the pqsA promoter, as previously described,[45] and the assay was performed according to a published method.[46] For initial screening, the compounds were tested at a concentration of 10 μM, which was prepared from a 10 mM stock, in DMSO."}, "[2]": {"system": "GFP-labeled P. aeruginosa PAO1-L biofilms", "experiment": "Biofilm viability assay, method 2 (tobramycin, GFP-labeled biofilm, PI)", "assay_type": "cell-based, Pseudomonas aeruginosa", "protocol": "Biofilms of PAO1-L were also tested for the impact of 6f on the potentiation of tobramycin activity (method 2).\nFigure 7 Effect of 6f and tobramycin on GFP-labeled P. aeruginosa PAO1-L biofilms. (A) Representative CLSM images: (a) Untreated biofilm; (b) biofilm grown with 6f at 1 μM for 16 h; (c) biofilm treated with 100 μg/mL tobramycin for 2 or 6 h after 16 h of growth; (d) biofilm grown with 1 μM 6f and treated with (6f 1 μM), tobramycin (100 μg/mL) for 2 or 6 h after 16 h of growth. Dead cells and extracellular DNA were stained red with propidium iodide (PI). Three-dimensional (3D) sections and cross sections are shown. Scale bar represents 100 μm. (B) Quantitative analysis of biofilm biomass at different conditions of treatment compared with a solvent vehicle control.\nBiofilms were cultivated on borosilicate glass coverslips in Petri dishes. P. aeruginosa strains, […], was transformed with plasmid pMMG, which constitutively expresses GFP from the Ptac promoter.[50] The tagged strain was grown at 37 °C, for 16 h, in 2 mL of RPMI-1640 (Lonza, Slough, UK), supplemented with 20 mM D-glucose (Sigma–Aldrich, Dorset, UK) and 2 μM FeCl3 (Sigma–Aldrich, Dorset, UK). Cultures were diluted 1:100 in fresh medium and allowed to grow for a further 4 h, or until an OD600 of 0.5 was reached. The mid logarithmic cultures were diluted to an OD600 of 0.01 in 25 mL of RPMI, supplemented with glucose and FeCl3, and inoculated into Petri dishes containing UV sterilized borosilicate glass coverslips (22 mm × 22 mm, thickness no1) (VWR, Lutterworth, UK). Bacterial cells were seeded at 37 ◦C under static conditions for 1.5 h, and compound 6f was supplemented to the 6f treated samples (6f, 6f + Tob samples) at a concentration of 1 μM before dishes were transferred to a shaker at 60 rpm and 37 ◦C for 16 h to form mature biofilms. Tobramycin and propidium iodide were added to the 16 h old cultures at concentrations of 100 μg/mL and 2 μM, respectively, followed by further incubation for 2 or 6 h. […]"}, "[3]": {"system": "pyocyanin production in P. aeruginosa", "experiment": "Pyocyanin quantification", "assay_type": "cell-based, Pseudomonas aeruginosa", "conditions": "for pyocyanin production: 6f 200 nM", "protocol": "This assay was extended further to investigate the effect of 6f on pyocyanin production in different P. aeruginosa at 6f concentration of 200 nM (Figure 5b).\nThe experiment was performed following a published protocol with minor modifications. Strains were cultured into 5 mL of fresh medium overnight. […] Cells were centrifuged at 10 000 RCF for 10 min (Allegra 64R centrifuge, Beckman Coulter, High Wycombe, UK), and the supernatant was transferred to 15 mL falcon tubes with a HSW 10 mL Soft-Ject Syringe and a […] Sartorius syringe-driven filter (Fisher Brand, Loughborough, UK). Pyocyanin pigment was extracted into chloroform by mixing 7.5 mL of supernatant with 4.5 mL of chloroform. Pyocyanin was further extracted into 1.5 mL of 0.2 M HCL, which gave a pink/red solution, and the absorbance was measured at 520 nm.[47]"}, "[4]": {"parameters": "method as in PMID 33073099", "conditions": "human microsomes; cited from earlier work"}, "[5]": {"system": "PqsR (PqsR-controlled pqsA promoter, PA14 mCTX::PpqsA-lux)", "experiment": "Bioluminescent reporter assay, PA14 mCTX::PpqsA-lux", "assay_type": "cell-based", "conditions": "Pseudomonas aeruginosa, PA14, read-out: IC50 (μM) PA14 mCTX::PpqsA-lux", "protocol": "as §1, §2"}, "[6]": {"system": "A549 human lung epithelial carcinoma cell line", "experiment": "A549 cytotoxicity assay (resazurin / alamar blue)", "assay_type": "cell-based", "conditions": "at concentrations up to 100 μM (1, 50, 100 μM), 24 h", "protocol": "Establishing the safety profile of new chemical entities is paramount for further drug development. […] The assay employed resazurin reduction, a sensitive fluorometric assay widely used as a standard methodology in drug discovery research.[35] This assay relies on the ability of living cells to reduce resazurin to the fluorescent compound, resorufin, which indicates the rate of the metabolic activity as a means to quantify cell viability.\nCell viability was assessed according to Nimesh et al.[51] on A549 adenocarcinomic human alveolar basal epithelial cell line. The viability of the A549 cell line was assessed after overnight incubation with three concentrations (1, 50, and 100 μM) of the corresponding compound using alamar blue (resazurin) dye. Cells were maintained in the Dulbecco’s Modified Essential Medium (DMEM) supplemented with 10% fetal bovine serum (FBS) and 1% penicillin–streptomycin–neomycin (PSN). After that, 100 μL of suspended cells with a final concentration (1 × 10^4 cells/wall) were seeded in 96-well plates with 100 μL of (1, 50, 100 μM) concentrations of the tested compound was dispensed in sextuplicate. […] The plates were further incubated for 4–6 h and the intensity of the fluorescence was measured using an excitation light of 510 nm and measuring the fluorescence output at 590 nm. The cell viability in each well was normalized to the DMSO reading."}}}
{"molecule": "CC(C)n1c(NCC(O)COc2ccc(CC#N)cc2)nc2ccc(Cl)cc21", "note": "(stereo not shown) [Compound 6f, 2-(4-(3-((6-Chloro-1-isopropyl-1H-benzo[d]imidazol-2-yl)amino)-2-hydroxypropoxy)phenyl) Acetonitrile]", "values": [{"measurement": "IC50", "setting": "[1]", "value": "0.07 ± 0.02", "unit": "µM"}, {"measurement": "biofilm killing, combination with tobramycin", "setting": "[2]; 6f 1 μM + tobramycin 100 μg/mL, 2 and 6 h of incubation", "value": "enhanced the killing"}, {"measurement": "live cells in biofilm, combination with tobramycin", "setting": "[2]; 6f 1 μM + tobramycin 100 μg/mL, 6 h", "value": "no live cells present"}, {"measurement": "viability of preformed biofilms, 6f on its own", "setting": "[2]; PAO1-L biofilm, 6f 1 μM", "value": "did not impact on the viability"}, {"measurement": "pyocyanin production", "setting": "[3]; IPCD1451", "value": "nonsignificant inhibition"}, {"measurement": "pyocyanin production", "setting": "[3]; all strains except IPCD1451", "value": "inhibited pyocyanin production"}, {"measurement": "inhibition of pyocyanin production", "setting": "[3]; PAO1-L, concentration three times the IC50, relative to DMSO", "value": "~80", "unit": "%"}, {"measurement": "half-life", "setting": "[4]", "value": "relatively short"}, {"measurement": "IC50", "setting": "[5]", "value": "0.09 ± 0.01", "unit": "µM"}, {"measurement": "cytotoxicity for A549 cells", "setting": "[6]", "value": "not cytotoxic"}]}
